# ChEMBL document CHEMBL1129879, “Enzymatic synthesis of peptidyl amino alcohols and peptidyl amino aldehydes-serine proteinase inhibitors” (Bioorg Med Chem Lett, 1997)
# Where a SMILES comes first, the peptide text is derived from it. The star is where a group is joined. Cbz = O=C(OCc1ccccc1)*
# How the values were obtained:
# [1] = The compound was tested for the inhibition of subtilisin 72, activity expressed as Ki; set-up: species or system Bacillus subtilis
# [2] = The compound was tested for the inhibition of subtilisin 72, activity expressed as IC50; set-up: species or system Bacillus subtilis
SMILES,Ki [1],IC50 [2]
C[C@H](NC(=O)OCc1ccccc1)C(=O)N[C@@H](C)C(=O)N[C@H](C=O)Cc1ccccc1 (Cbz-Ala-Ala-Phe-aldehyde),0.18 µM,0.9 µM
C[C@H](NC(=O)OCc1ccccc1)C(=O)N[C@@H](C)C(=O)N[C@H](CO)Cc1ccccc1 (HELM PEPTIDE1{[O=C(OCc1ccccc1)[*:2]].A.A.[OC[C@H](Cc1ccccc1)N[*:1]]}$$$$V2.0),1000 µM,
